Where a SMILES comes first, the peptide text is derived from it. Bridges are numbered along the chain shown (N, C = ends). [ ]: non-standard residue; d: D form. The star is where a group is joined. Bip = N[C@@H](Cc1ccc(-c2ccccc2)cc1)C(=O)O; dNMeaIle = CC[C@H](C)[C@@H](NC)C(=O)O; NMe2Val = CC(C)[C@@H](C(=O)*)N(C)C; NMeLys(Me) = CNCCCC[C@H](NC)C(=O)O; NMeI = CC[C@H](C)[C@H](NC)C(=O)O; NMeT = CN[C@H](C(=O)O)[C@@H](C)O; 2Pal = N[C@@H](Cc1ccccn1)C(=O)O; 3Pal = N[C@@H](Cc1cccnc1)C(=O)O; 4Pal = N[C@@H](Cc1ccncc1)C(=O)O; NMeL = CN[C@@H](CC(C)C)C(=O)O; NMeOrn = CN[C@@H](CCCN)C(=O)O; dNMeOrn = CN[C@H](CCCN)C(=O)O; dHiv = CC(C)[C@@H](O)C(=O)O; NMeS = CN[C@@H](CO)C(=O)O; NMeA = CN[C@@H](C)C(=O)O; dNMeA = CN[C@H](C)C(=O)O
The compounds below were run on A549 (assay: Cytotoxicity against human A549 cells assessed as cell growth inhibition incubated for 72 hrs by MTS assay). Settings: A549, 72 h.
Format: functional, cell-based
Compound CC[C@H](C)[C@H]1C(=O)N[C@@H](C)C(=O)N(C)[C@@H](CC(C)C)C(=O)N[C@@H](Cc2ccc(OC)cc2)C(=O)N(C)CCCC[C@H](N(C)C(=O)[C@H](CC(C)C)NC(=O)[C@H](C)N(C)C(=O)[C@H](OC(=O)[C@H](C(C)C)N(C)C)C(C)C)C(=O)N(C)[C@@H](C)C(=O)N1C (NMe2Val-[dHiv][NMeA]L[NMeLys(Me)][NMeA][NMeI]A[NMeL]Y(Me); lactam 4-C) has an IC50 of 3.4 µM. CC[C@H](C)[C@@H]1NC(=O)[C@H](C)N(C)C(=O)[C@@H](N(C)C(=O)[C@H](CC(C)C)N(C)C(=O)[C@H](C)N(C)C(=O)[C@H](OC(=O)[C@H](C(C)C)N(C)C)C(C)C)CCCCN(C)C(=O)[C@H](Cc2ccc(OC)cc2)NC(=O)[C@H](CC(C)C)N(C)C(=O)[C@H](C)NC1=O (NMe2Val-[dHiv][NMeA][NMeL][NMeLys(Me)][NMeA]IA[NMeL]Y(Me); lactam 4-C) was tested, and the IC50 was greater than 10 µM. CC[C@H](C)[C@H]1C(=O)N[C@@H](C)C(=O)N(C)[C@@H](CC(C)C)C(=O)N[C@@H](Cc2ccccn2)C(=O)N(C)CCCC[C@H](N(C)C(=O)[C@H](CC(C)C)N(C)C(=O)[C@H](C)N(C)C(=O)[C@H](OC(=O)[C@H](C(C)C)N(C)C)C(C)C)C(=O)N(C)[C@@H](C)C(=O)N1C (NMe2Val-[dHiv][NMeA][NMeL][NMeLys(Me)][NMeA][NMeI]A[NMeL][2Pal]; lactam 4-C) was tested, and the IC50 was greater than 10 µM. Compound CC[C@H](C)[C@H]1C(=O)N[C@@H](C)C(=O)N(C)[C@@H](CC(C)C)C(=O)N[C@@H](Cc2cccnc2)C(=O)N(C)CCCC[C@H](N(C)C(=O)[C@H](CC(C)C)N(C)C(=O)[C@H](C)N(C)C(=O)[C@H](OC(=O)[C@H](C(C)C)N(C)C)C(C)C)C(=O)N(C)[C@@H](C)C(=O)N1C (NMe2Val-[dHiv][NMeA][NMeL][NMeLys(Me)][NMeA][NMeI]A[NMeL][3Pal]; lactam 4-C) has an IC50 greater than 10 µM. With CC[C@H](C)[C@H]1C(=O)N[C@@H](C)C(=O)N(C)[C@@H](CC(C)C)C(=O)N[C@@H](Cc2ccncc2)C(=O)N(C)CCCC[C@H](N(C)C(=O)[C@H](CC(C)C)N(C)C(=O)[C@H](C)N(C)C(=O)[C@H](OC(=O)[C@H](C(C)C)N(C)C)C(C)C)C(=O)N(C)[C@@H](C)C(=O)N1C (NMe2Val-[dHiv][NMeA][NMeL][NMeLys(Me)][NMeA][NMeI]A[NMeL][4Pal]; lactam 4-C) the IC50 was greater than 10 µM. CC[C@H](C)[C@H]1C(=O)N[C@@H](C)C(=O)N(C)[C@@H](CC(C)C)C(=O)N[C@H](Cc2ccc(OC)cc2)C(=O)N(C)CCCC[C@H](N(C)C(=O)[C@H](CC(C)C)N(C)C(=O)[C@H](C)N(C)C(=O)[C@H](OC(=O)[C@H](C(C)C)N(C)C)C(C)C)C(=O)N(C)[C@@H](C)C(=O)N1C (NMe2Val-[dHiv][NMeA][NMeL][NMeLys(Me)][NMeA][NMeI]A[NMeL][dY](Me); lactam 4-C) was tested, and the IC50 was greater than 10 µM. Work on CC[C@H](C)[C@H]1C(=O)N[C@H](C)C(=O)N(C)[C@@H](CC(C)C)C(=O)N[C@@H](Cc2ccc(OC)cc2)C(=O)N(C)CCCC[C@H](N(C)C(=O)[C@H](CC(C)C)N(C)C(=O)[C@H](C)N(C)C(=O)[C@H](OC(=O)[C@H](C(C)C)N(C)C)C(C)C)C(=O)N(C)[C@@H](C)C(=O)N1C (NMe2Val-[dHiv][NMeA][NMeL][NMeLys(Me)][NMeA][NMeI][dA][NMeL]Y(Me); lactam 4-C) yielded an IC50 greater than 10 µM. CC[C@H](C)[C@@H]1C(=O)N[C@@H](C)C(=O)N(C)[C@@H](CC(C)C)C(=O)N[C@@H](Cc2ccc(OC)cc2)C(=O)N(C)CCCC[C@H](N(C)C(=O)[C@H](CC(C)C)N(C)C(=O)[C@H](C)N(C)C(=O)[C@H](OC(=O)[C@H](C(C)C)N(C)C)C(C)C)C(=O)N(C)[C@@H](C)C(=O)N1C (NMe2Val-[dHiv][NMeA][NMeL][NMeLys(Me)][NMeA][dNMeaIle]A[NMeL]Y(Me); lactam 4-C) gave an IC50 greater than 10 µM. Compound CC[C@H](C)[C@H]1C(=O)N[C@@H](C)C(=O)N(C)[C@@H](CC(C)C)C(=O)N[C@@H](Cc2ccc(OC)cc2)C(=O)N(C)CCCC[C@H](N(C)C(=O)[C@H](CC(C)C)N(C)C(=O)[C@H](C)N(C)C(=O)[C@H](OC(=O)[C@H](C(C)C)N(C)C)C(C)C)C(=O)N(C)[C@H](C)C(=O)N1C (NMe2Val-[dHiv][NMeA][NMeL][NMeLys(Me)][dNMeA][NMeI]A[NMeL]Y(Me); lactam 4-C) has an IC50 greater than 10 µM. In the case of CC[C@H](C)[C@H]1C(=O)N[C@@H](C)C(=O)N(C)[C@@H](CC(C)C)C(=O)N[C@@H](Cc2ccc(OC)cc2)C(=O)NCCC[C@H](N(C)C(=O)[C@H](CC(C)C)N(C)C(=O)[C@H](C)N(C)C(=O)[C@H](OC(=O)[C@H](C(C)C)N(C)C)C(C)C)C(=O)N(C)[C@@H](C)C(=O)N1C (NMe2Val-[dHiv][NMeA][NMeL][NMeOrn][NMeA][NMeI]A[NMeL]Y(Me); lactam 4-C), the IC50 is reported as greater than 10 µM. Work on CC[C@H](C)[C@H]1C(=O)N[C@@H](C)C(=O)N(C)[C@@H](CC(C)C)C(=O)N[C@@H](Cc2ccc(OC)cc2)C(=O)NCCC[C@@H](N(C)C(=O)[C@H](CC(C)C)N(C)C(=O)[C@H](C)N(C)C(=O)[C@H](OC(=O)[C@H](C(C)C)N(C)C)C(C)C)C(=O)N(C)[C@@H](C)C(=O)N1C (NMe2Val-[dHiv][NMeA][NMeL][dNMeOrn][NMeA][NMeI]A[NMeL]Y(Me); lactam 4-C) yielded an IC50 greater than 10 µM. In the case of CC[C@H](C)[C@H]1C(=O)N[C@@H](C)C(=O)N(C)[C@@H](CC(C)C)C(=O)N[C@@H](Cc2ccc(-c3ccccc3)cc2)C(=O)N(C)[C@H](C)C(=O)O[C@H](C)[C@H](N(C)C(=O)[C@H](CC(C)C)N(C)C(=O)[C@H](COC)N(C)C(=O)[C@H](OC(=O)[C@H](C(C)C)N(C)C)C(C)C)C(=O)N(C)[C@@H](COC)C(=O)N1C (NMe2Val-[dHiv][NMeS](Me)[NMeL][NMeT][NMeS](Me)[NMeI]A[NMeL][Bip][dNMeA]; ester 4-C), the IC50 is reported as 0.00011 µM.
